Laboratory results taken from ChEMBL document CHEMBL4507307 (2021).

Experiments:
[1] = biological target: D(1A) dopamine receptor (Homo sapiens, UniProt P21728); test: GPCRScan assay: inhibition of D1; design: radioligand conc. used [nm] 0.6 – 1.3, parental cells HEKT
[2] = biological target: Alpha-1B adrenergic receptor (Homo sapiens, UniProt P35368); test: GPCRScan assay: inhibition of Alpha1B; design: radioligand conc. used [nm] 0.3 – 1.0, parental cells stable HEK
[3] = biological target: D(3) dopamine receptor (Homo sapiens, UniProt P35462); test: GPCRScan assay: inhibition of D3; design: radioligand conc. used [nm] 0.5 – 1.8, parental cells HEKT
[4] = biological target: 5-hydroxytryptamine receptor 1E (Homo sapiens, UniProt P28566); settings: Compound concentration 10.0 uM
[5] = biological target: Alpha-2B adrenergic receptor (Homo sapiens, UniProt P18089); test: GPCRScan assay: inhibition of Alpha2B; design: radioligand conc. used [nm] 1.5 – 2.0, parental cells HEKT
[6] = biological target: Sigma non-opioid intracellular receptor 1 (Homo sapiens, UniProt Q99720); test: GPCRScan assay: inhibition of Sigma 1; design: radioligand conc. used [nm] 4.0 – 5.0, parental cells HEKT
[7] = biological target: Histamine H2 receptor (Homo sapiens, UniProt P25021); test: GPCRScan assay: inhibition of H2; design: radioligand conc. used [nm] 0.02 – 0.05, parental cells Stable HEK
[8] = biological target: Beta-1 adrenergic receptor (Homo sapiens) (UniProt P08588); settings: Compound concentration 10.0 uM
[9] = organism: Rattus norvegicus; settings: Compound concentration 10.0 uM
[10] = biological target: 5-hydroxytryptamine receptor 3A (Homo sapiens) (UniProt P46098); settings: Compound concentration 10.0 uM
[11] = biological target: Mu-type opioid receptor (Homo sapiens, UniProt P35372); test: GPCRScan assay: inhibition of MOR; design: radioligand conc. used [nm] 1.0 – 2.0, parental cells stable HEK
[12] = biological target: Alpha-1D adrenergic receptor (Homo sapiens) (UniProt P25100); settings: Compound concentration 10.0 uM
[13] = biological target: Focal adhesion kinase 1 (Homo sapiens) (UniProt Q05397); test: PTK2 (FAK) Kinase activity screen
[14] = biological target: Serine/threonine-protein kinase Nek1 (Homo sapiens) (UniProt Q96PY6); test: NEK1 Kinase activity screen
[15] = biological target: Serine/threonine-protein kinase Nek2 (Homo sapiens) (UniProt P51955); test: NEK2 Kinase activity screen
[16] = biological target: Serine/threonine-protein kinase B-raf (Homo sapiens) (UniProt P15056); test: BRAF Kinase activity screen
[17] = biological target: Interleukin-1 receptor-associated kinase 4 (Homo sapiens) (UniProt Q9NWZ3); test: IRAK4 Kinase activity screen
[18] = biological target: cAMP-dependent protein kinase catalytic subunit alpha (Homo sapiens) (UniProt P17612); test: PRKACA (PKA) Kinase activity screen
[19] = biological target: Serine/threonine-protein kinase PLK1 (Homo sapiens) (UniProt P53350); test: PLK1 Kinase activity screen
[20] = biological target: Cyclin-dependent kinase 1/cyclin B (Homo sapiens) (UniProt P06493+P14635+Q8WWL7+O95067); test: CDK1/cyclin B Kinase activity screen; type: protein-complex assay
[21] = biological target: Proto-oncogene tyrosine-protein kinase receptor Ret (Homo sapiens) (UniProt P07949); test: RET Kinase activity screen
[22] = biological target: Aurora kinase A (Homo sapiens) (UniProt O14965); test: AURKA (Aurora A) Kinase activity screen
[23] = biological target: PI3-kinase p110-alpha/p85-alpha (Homo sapiens) (UniProt P27986+P42336); test: PIK3CA/PIK3R1 (p110 alpha/p85 alpha) Kinase activity screen; type: protein-complex assay
[24] = biological target: Protein kinase C alpha type (Homo sapiens) (UniProt P17252); test: PRKCA (PKC alpha) Kinase activity screen
[25] = biological target: CDK2/Cyclin A2 (Homo sapiens) (UniProt P24941+P20248); test: CDK2/cyclin A Kinase activity screen; type: protein-complex assay
[26] = biological target: Rho-associated protein kinase 1 (Homo sapiens) (UniProt Q13464); test: ROCK1 Kinase activity screen
[27] = biological target: Dual specificity protein kinase CLK1 (Homo sapiens, UniProt P49759); test: CLK1 Kinase activity screen
[28] = biological target: Mitogen-activated protein kinase 1 (Homo sapiens) (UniProt P28482); test: MAPK1 (ERK2) Kinase activity screen
[29] = biological target: Cyclin-dependent kinase 5/CDK5 activator 1 (Homo sapiens) (UniProt Q00535+Q15078); test: CDK5/p35 Kinase activity screen; type: protein-complex assay
[30] = biological target: Inhibitor of nuclear factor kappa-B kinase subunit beta (Homo sapiens) (UniProt O14920); test: IKBKB (IKK beta) Kinase activity screen
[31] = biological target: Dual specificity protein kinase CLK3 (Homo sapiens) (UniProt P49761); test: CLK3 Kinase activity screen
[32] = biological target: Casein kinase I isoform alpha (Homo sapiens) (UniProt P48729); test: CSNK1A1 (CK1 alpha 1) Kinase activity screen
[33] = biological target: Ephrin type-A receptor 2 (Homo sapiens) (UniProt P29317); test: EPHA2 Kinase activity screen
[34] = biological target: Glycogen synthase kinase-3 beta (Homo sapiens) (UniProt P49841); test: GSK3B (GSK3 beta) Kinase activity screen
[35] = biological target: Angiopoietin-1 receptor (Homo sapiens) (UniProt Q02763); test: TEK (Tie2) Kinase activity screen
[36] = biological target: MAP kinase-activated protein kinase 2 (Homo sapiens) (UniProt P49137); test: MAPKAPK2 Kinase activity screen
[37] = biological target: Calcium/calmodulin-dependent protein kinase type 1 (Homo sapiens) (UniProt Q14012); test: CAMK1 (CaMK1) Kinase activity screen
[38] = biological target: Dual specificity tyrosine-phosphorylation-regulated kinase 3 (Homo sapiens) (UniProt O43781); test: DYRK3 Kinase activity screen
[39] = biological target: Tyrosine-protein kinase JAK2 (Homo sapiens) (UniProt O60674); test: JAK2 Kinase activity screen
[40] = biological target: Proto-oncogene tyrosine-protein kinase ROS (Homo sapiens) (UniProt P08922); test: ROS1 Kinase activity screen
[41] = Compound concentration 0.123 uM

Sequence of MAP kinase-activated protein kinase 2 (Homo sapiens) (P49137 whole entry, looked up): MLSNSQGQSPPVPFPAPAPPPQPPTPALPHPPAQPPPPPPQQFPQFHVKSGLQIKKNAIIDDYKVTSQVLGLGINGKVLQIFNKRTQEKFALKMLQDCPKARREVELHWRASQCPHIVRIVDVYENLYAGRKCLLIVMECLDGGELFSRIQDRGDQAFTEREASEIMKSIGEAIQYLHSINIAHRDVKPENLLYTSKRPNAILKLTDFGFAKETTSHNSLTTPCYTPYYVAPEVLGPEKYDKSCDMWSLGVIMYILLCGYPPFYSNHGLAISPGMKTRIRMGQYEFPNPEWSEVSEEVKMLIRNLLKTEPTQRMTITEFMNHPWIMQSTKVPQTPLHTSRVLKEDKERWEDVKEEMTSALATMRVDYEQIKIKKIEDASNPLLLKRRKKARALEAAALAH
Sequence of Inhibitor of nuclear factor kappa-B kinase subunit beta (Homo sapiens) (O14920 whole entry): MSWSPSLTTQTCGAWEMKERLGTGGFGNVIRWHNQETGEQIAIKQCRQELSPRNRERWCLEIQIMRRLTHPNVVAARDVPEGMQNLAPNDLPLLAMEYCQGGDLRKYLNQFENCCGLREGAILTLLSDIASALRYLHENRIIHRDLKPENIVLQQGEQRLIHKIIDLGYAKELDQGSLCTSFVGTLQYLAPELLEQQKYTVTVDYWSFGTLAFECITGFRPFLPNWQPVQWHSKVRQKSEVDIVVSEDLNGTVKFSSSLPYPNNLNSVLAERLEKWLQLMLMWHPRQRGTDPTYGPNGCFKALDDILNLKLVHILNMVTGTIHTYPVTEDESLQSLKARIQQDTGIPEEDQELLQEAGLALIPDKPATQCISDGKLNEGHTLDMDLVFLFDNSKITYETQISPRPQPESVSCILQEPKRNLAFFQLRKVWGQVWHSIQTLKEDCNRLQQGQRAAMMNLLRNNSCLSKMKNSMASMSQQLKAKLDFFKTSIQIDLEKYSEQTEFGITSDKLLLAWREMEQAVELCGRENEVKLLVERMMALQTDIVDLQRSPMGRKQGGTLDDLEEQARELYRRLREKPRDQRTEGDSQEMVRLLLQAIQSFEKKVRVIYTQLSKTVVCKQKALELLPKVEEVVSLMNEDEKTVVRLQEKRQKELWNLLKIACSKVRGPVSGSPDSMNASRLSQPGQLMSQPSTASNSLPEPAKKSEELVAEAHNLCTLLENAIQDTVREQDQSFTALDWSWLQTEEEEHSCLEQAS
Sequence of Interleukin-1 receptor-associated kinase 4 (Homo sapiens) (Q9NWZ3 whole entry): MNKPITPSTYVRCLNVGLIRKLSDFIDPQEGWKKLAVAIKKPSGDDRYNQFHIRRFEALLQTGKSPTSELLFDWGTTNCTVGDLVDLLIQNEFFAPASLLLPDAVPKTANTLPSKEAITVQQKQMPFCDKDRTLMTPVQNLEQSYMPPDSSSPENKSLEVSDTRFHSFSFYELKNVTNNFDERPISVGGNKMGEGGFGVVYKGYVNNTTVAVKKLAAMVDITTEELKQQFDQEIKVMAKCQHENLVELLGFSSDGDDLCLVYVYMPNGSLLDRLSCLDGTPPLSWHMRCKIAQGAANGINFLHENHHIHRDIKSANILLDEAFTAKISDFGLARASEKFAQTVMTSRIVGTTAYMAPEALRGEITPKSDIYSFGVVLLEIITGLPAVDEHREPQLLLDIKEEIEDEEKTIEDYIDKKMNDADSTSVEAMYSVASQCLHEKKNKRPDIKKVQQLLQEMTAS
Sequence of Angiopoietin-1 receptor (Homo sapiens) (Q02763 whole entry): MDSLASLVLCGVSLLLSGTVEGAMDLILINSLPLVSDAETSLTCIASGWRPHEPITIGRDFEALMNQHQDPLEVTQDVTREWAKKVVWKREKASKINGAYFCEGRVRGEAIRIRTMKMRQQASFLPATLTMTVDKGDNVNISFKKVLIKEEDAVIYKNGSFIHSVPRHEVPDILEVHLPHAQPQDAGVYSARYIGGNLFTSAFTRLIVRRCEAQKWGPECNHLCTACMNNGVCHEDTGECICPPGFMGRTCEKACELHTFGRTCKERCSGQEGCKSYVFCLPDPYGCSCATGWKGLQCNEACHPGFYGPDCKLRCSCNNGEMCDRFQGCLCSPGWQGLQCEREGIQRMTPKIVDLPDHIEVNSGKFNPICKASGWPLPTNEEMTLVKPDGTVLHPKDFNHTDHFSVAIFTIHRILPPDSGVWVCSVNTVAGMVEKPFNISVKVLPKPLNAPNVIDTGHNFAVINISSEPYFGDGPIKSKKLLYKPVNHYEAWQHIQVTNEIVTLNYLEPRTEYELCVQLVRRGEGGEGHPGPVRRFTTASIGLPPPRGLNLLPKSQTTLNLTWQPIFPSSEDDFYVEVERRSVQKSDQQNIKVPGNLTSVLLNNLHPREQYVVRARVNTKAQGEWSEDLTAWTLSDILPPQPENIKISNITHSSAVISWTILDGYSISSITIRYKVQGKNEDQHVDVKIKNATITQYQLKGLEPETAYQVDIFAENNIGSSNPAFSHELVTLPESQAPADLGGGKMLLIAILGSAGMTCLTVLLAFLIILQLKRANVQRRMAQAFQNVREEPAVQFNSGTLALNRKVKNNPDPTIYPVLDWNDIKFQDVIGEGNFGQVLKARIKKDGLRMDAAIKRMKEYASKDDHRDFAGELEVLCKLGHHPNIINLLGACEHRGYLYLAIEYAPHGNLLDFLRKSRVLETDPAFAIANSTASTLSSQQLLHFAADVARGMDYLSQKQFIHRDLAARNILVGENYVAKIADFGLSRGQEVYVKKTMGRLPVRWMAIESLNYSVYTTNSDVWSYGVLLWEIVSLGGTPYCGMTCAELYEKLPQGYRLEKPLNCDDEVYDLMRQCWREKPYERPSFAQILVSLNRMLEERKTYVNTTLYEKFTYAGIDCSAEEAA
Sequence of Serine/threonine-protein kinase Nek2 (Homo sapiens) (P51955 whole entry): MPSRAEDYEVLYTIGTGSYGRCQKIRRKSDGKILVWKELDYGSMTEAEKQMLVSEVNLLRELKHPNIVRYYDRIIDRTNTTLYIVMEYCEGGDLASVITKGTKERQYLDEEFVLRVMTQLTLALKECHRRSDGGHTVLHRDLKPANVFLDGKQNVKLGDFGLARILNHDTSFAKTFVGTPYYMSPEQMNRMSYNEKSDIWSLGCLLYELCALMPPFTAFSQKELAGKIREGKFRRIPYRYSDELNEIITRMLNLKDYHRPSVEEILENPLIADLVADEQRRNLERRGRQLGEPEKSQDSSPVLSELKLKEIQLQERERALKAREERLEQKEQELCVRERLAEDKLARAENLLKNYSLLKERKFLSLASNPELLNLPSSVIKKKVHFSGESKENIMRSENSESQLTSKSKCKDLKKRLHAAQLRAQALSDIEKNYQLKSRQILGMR
Sequence of Serine/threonine-protein kinase Nek1 (Homo sapiens) (Q96PY6 whole entry): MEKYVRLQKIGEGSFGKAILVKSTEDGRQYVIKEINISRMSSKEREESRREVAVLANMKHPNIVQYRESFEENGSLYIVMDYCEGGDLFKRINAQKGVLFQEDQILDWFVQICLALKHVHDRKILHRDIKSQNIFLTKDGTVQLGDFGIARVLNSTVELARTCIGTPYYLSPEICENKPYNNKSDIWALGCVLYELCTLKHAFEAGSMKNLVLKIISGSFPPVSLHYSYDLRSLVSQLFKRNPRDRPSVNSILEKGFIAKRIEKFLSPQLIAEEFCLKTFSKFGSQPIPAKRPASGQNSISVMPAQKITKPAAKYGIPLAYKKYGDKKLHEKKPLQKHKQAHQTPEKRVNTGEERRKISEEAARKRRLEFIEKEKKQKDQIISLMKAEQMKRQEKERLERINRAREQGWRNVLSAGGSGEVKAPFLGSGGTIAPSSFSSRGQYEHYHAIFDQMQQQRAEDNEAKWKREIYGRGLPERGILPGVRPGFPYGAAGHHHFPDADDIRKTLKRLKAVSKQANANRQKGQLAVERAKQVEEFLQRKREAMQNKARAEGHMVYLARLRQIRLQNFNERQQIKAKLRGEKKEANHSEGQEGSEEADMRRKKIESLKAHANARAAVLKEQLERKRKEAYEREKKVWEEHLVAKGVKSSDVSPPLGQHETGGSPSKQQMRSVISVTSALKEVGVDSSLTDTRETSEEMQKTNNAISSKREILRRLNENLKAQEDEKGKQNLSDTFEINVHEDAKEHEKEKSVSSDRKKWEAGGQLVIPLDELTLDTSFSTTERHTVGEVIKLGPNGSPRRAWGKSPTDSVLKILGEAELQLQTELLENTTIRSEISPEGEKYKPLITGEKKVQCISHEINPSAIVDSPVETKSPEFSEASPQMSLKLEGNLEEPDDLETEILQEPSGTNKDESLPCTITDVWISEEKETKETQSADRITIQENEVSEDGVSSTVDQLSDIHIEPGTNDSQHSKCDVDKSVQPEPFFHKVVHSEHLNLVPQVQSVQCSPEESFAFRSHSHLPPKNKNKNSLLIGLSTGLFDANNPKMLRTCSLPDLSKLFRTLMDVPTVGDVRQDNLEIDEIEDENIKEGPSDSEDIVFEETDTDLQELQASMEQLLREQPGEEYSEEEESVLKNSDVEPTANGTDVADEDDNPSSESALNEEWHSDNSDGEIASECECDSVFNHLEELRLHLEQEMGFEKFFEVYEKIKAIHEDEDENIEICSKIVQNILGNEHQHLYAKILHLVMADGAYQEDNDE
Sequence of Alpha-1B adrenergic receptor (P35368 whole entry): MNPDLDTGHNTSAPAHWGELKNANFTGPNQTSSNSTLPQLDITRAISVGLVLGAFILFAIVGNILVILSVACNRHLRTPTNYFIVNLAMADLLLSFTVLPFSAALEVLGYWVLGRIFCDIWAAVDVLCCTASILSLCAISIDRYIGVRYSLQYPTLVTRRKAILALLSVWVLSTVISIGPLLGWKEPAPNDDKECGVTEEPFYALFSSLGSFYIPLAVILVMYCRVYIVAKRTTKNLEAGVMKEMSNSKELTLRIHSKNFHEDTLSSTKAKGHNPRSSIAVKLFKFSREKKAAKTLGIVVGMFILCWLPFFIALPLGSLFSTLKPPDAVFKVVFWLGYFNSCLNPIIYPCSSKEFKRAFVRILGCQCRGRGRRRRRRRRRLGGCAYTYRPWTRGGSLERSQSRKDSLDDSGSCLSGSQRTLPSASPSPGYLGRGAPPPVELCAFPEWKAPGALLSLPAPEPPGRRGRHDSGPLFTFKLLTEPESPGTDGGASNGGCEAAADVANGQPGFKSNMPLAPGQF

CN1CCN(C(=O)C(C)(C)c2ccc(C(=O)Nc3cn4cc(-c5cc(C(C)(C)C)cc(C(C)(C)C)c5)ccc4n3)cc2)CC1 [T3-CLK-N]
Ki ([1]; read-out: Ki): 1.5 µM | Ki ([1]; read-out: pKi (converted)): 1.29 µM | Ki ([2]; read-out: Ki): 5.53 µM | Ki ([2]; read-out: pKi (converted)): 5.37 µM | Ki ([3]; read-out: Ki): 2.25 µM | Ki ([3]; read-out: pKi (converted)): 1.91 µM | inhibition [4]: 60.5% | Ki ([5]; read-out: Ki): 1.65 µM | Ki ([5]; read-out: pKi (converted)): 1.62 µM | Ki ([6]; read-out: Ki): 0.798 µM | Ki ([6]; read-out: pKi (converted)): 0.741 µM | Ki ([7]; read-out: Ki): 1.73 µM | Ki ([7]; read-out: pKi (converted)): 1.62 µM | inhibition [8]: 28% | inhibition [9]: -6.1% | inhibition [10]: 6.47% | Ki [11]: 4.02 µM | inhibition [12]: 57%

CN1CCN(C(=O)C(C)(C)c2ccc(C(=O)Nc3cn4cc(-c5ccncc5)ccc4n3)cc2)CC1 [T3-CLK]
inhibition ([13]; Compound concentration 0.1 uM): -9.12% | inhibition ([13]; Compound concentration 1.0 uM): -7.35% | inhibition ([14]; Compound concentration 0.1 uM): 3.86% | inhibition ([14]; Compound concentration 1.0 uM): 25.1% | inhibition ([15]; Compound concentration 0.1 uM): 11.9% | inhibition ([15]; Compound concentration 1.0 uM): 24.3% | inhibition ([16]; Compound concentration 0.1 uM): 8.71% | inhibition ([16]; Compound concentration 1.0 uM): 17.2% | inhibition ([17]; Compound concentration 0.1 uM): 25.3% | inhibition ([17]; Compound concentration 1.0 uM): 42.4% | inhibition ([18]; Compound concentration 0.1 uM): -1.57% | inhibition ([18]; Compound concentration 1.0 uM): 3.62% | inhibition [4]: -1.52% | inhibition ([19]; Compound concentration 0.1 uM): 7.85% | inhibition ([19]; Compound concentration 1.0 uM): 2.48% | inhibition ([20]; Compound concentration 0.1 uM): 7.95% | inhibition ([20]; Compound concentration 1.0 uM): 7.1% | inhibition ([21]; Compound concentration 0.1 uM): -1.05% | inhibition ([21]; Compound concentration 1.0 uM): -2.43% | inhibition ([22]; Compound concentration 0.1 uM): 4.51% | inhibition ([22]; Compound concentration 1.0 uM): 8.55% | inhibition ([23]; Compound concentration 0.1 uM): 3.58% | inhibition ([23]; Compound concentration 1.0 uM): 3.6% | inhibition ([24]; Compound concentration 0.1 uM): 4.38% | inhibition ([24]; Compound concentration 1.0 uM): 3.75% | inhibition ([25]; Compound concentration 0.1 uM): 0.334% | inhibition ([25]; Compound concentration 1.0 uM): 3.32% | inhibition ([26]; Compound concentration 0.1 uM): 5.17% | inhibition ([26]; Compound concentration 1.0 uM): 9.37% | inhibition [27, 41]: 91.2% | inhibition ([27]; Compound concentration 1.11 uM): 99.1% | inhibition ([28]; Compound concentration 0.1 uM): 2.74% | inhibition ([28]; Compound concentration 1.0 uM): 4.01% | inhibition ([29]; Compound concentration 0.1 uM): 1.85% | inhibition ([29]; Compound concentration 1.0 uM): -1.12% | inhibition [8]: -7.22% | inhibition ([30]; Compound concentration 0.1 uM): -6.12% | inhibition ([30]; Compound concentration 1.0 uM): -4.71% | inhibition [31, 41]: 38.3% | inhibition ([31]; Compound concentration 1.11 uM): 88.7% | inhibition ([32]; Compound concentration 0.1 uM): -3.75% | inhibition ([32]; Compound concentration 1.0 uM): -2.73% | inhibition [10]: 1.81% | inhibition ([33]; Compound concentration 0.1 uM): -4.09% | inhibition ([33]; Compound concentration 1.0 uM): -6.26% | inhibition ([34]; Compound concentration 0.1 uM): -3.21% | inhibition ([34]; Compound concentration 1.0 uM): -3.11% | inhibition ([35]; Compound concentration 0.1 uM): 0.108% | inhibition ([35]; Compound concentration 1.0 uM): -0.329% | inhibition ([36]; Compound concentration 0.1 uM): 3.68% | inhibition ([36]; Compound concentration 1.0 uM): 2.12% | inhibition ([37]; Compound concentration 0.1 uM): 7.14% | inhibition ([37]; Compound concentration 1.0 uM): 5.32% | inhibition [38, 41]: -1.82% | inhibition ([38]; Compound concentration 1.11 uM): 3.7% | inhibition ([39]; Compound concentration 0.1 uM): -7.35% | inhibition ([39]; Compound concentration 1.0 uM): -6.29% | inhibition ([40]; Compound concentration 0.1 uM): -3.68% | inhibition ([40]; Compound concentration 1.0 uM): -0.398%
